Read-outs that look alike come from different tables or passages of the source.
Columns and labels:
p53 Y220C = p53 Y220C (Homo sapiens, UniProt P04637, Y220C); assay: Luciferase Reporter Assay (Luc), p53 response element, NClH1299 cells with inducible p53 Y220C; assay type: cell-based; settings: 6 hour; for AC50: read-out: Luc P53 Y220C AC50
How it was run: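 24 h dox pre-induction (0.5 ug/mL), then 6 h compound; One-Glo luminescent read.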

[1] = molecular target: T1, p53 Y220C mutant protein (amino acid residues 94-293) (Homo sapiens, UniProt P04637, Y220C); assay: Surface Plasmon Resonance (SPR) assay, Kd_kinetic; assay type: binding; settings: SPR; p53 Y220C; read-out: SPR P53 Y220C KD kinetic
T1 construct: p53 Y220C mutant protein (amino acid residues 94-293)
T1 sequence (P04637 94-293, stated change not applied): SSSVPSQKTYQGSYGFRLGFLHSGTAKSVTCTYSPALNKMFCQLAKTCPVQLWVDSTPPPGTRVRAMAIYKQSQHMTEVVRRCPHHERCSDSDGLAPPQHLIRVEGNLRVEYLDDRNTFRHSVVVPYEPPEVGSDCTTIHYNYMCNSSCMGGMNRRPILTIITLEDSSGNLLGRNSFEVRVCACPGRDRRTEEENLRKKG
How it was run: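 Kd values come from fitting sensorgrams to a 1:1 binding model. Sensorgrams were recorded on a Biacore 8K at 16 or 20 °C in pH 7.5 Tris buffer with 100 mM NaCl, 1 mM DTT, detergents and 1% DMSO.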

NUGC3 p53 Y220C = assay: Cell Proliferation Assay (CellTiter-Glo, CTG), NUGC3 p53 Y220C; assay type: cell-based; settings: Homo sapiens, NUGC-3, 120 h, NUGC3 cells, 5 days
How it was run: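 NClH1299 lines stably transduced with Tet-inducible p53 Y220C or R273H, plus NUGC3, were treated with compound for 5 days at 250-500 cells/well. IC50 derived from CellTiter-Glo luminescent signal after 10 min room-temperature incubation.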

H1299 p53 Y220C = assay: Cell Proliferation Assay (CellTiter-Glo, CTG), H1299 p53 Y220C (NClH1299-inducible p53 Y220C); assay type: cell-based; settings: Homo sapiens, NCI-H1299, 120 h, NClH1299-inducible p53 Y220C cells, 5 days
How it was run: (§1)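 Tet-One inducible p53 Y220C or R273H constructs were stably introduced into NCI-H1299 by lentiviral transduction; NUGC3 was used as is. Cells (250-500 per well) were exposed to compound for 5 days, then CellTiter-Glo was added for 10 min at room temperature and IC50 was calculated from luminescence.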

H1299 p53 R273H = assay: Cell Proliferation Assay (CellTiter-Glo, CTG), H1299 p53 R273H (NClH1299-inducible p53 R273H); assay type: cell-based; settings: Homo sapiens, NCI-H1299, 120 h, NClH1299-inducible p53 R273H cells, 5 days
How it was run: as §1

[2] = luciferase reporter, NClH1299 inducible p53 Y220C
[3] = NClH1299 cells with inducible p53 Y220C
[4] = NClH1299 cells with inducible p53 Y220C, 10 uM tool compound as positive control

SMILES | AC50 (p53 Y220C; [2]) | Emax (p53 Y220C; [2]) | Kd [1] | IC50 (H1299 p53 Y220C; CellTiter-Glo) | IC50 (H1299 p53 R273H; CellTiter-Glo) | AC50 (p53 Y220C; [3]) | Emax (p53 Y220C; [4]) | IC50 (H1299 p53 Y220C) | IC50 (H1299 p53 R273H) | IC50 (NUGC3 p53 Y220C; CellTiter-Glo) | IC50 (NUGC3 p53 Y220C)
CNC(=O)c1ccc(NCC#Cc2cc3c(N[C@@H]4CCNC[C@@H]4F)cccn3c2SC(F)(F)F)c(O)c1 [Example 455, 4-{[3-(8-{[(3S,4R)-3-fluoropiperidin-4-yl]amino}-3-[(trifluoromethyl)sulfanyl]indolizin-2-yl)prop-2-yn-1-yl]amino}-3-hydroxy-N-methylbenzamide] | – | – | < 10 nM | – | – | < 750 nM | 80 to 90% | < 750 nM | 5000 to 8000 nM | – | < 750 nM
CN1CC[C@@H](Nc2cccn3c(SC(F)(F)F)c(C#CCNc4ccc(C(=O)NC[C@H](O)CO)cc4)cc23)[C@@H](F)C1 [Example 460] | – | – | < 10 nM | – | – | < 750 nM | > 90% | < 750 nM | ≥ 10000 nM | – | < 750 nM
COc1ccc(C(=O)NC[C@@H](O)CO)cc1NCC#Cc1cc2c(N[C@@H]3CCN(C)C[C@@H]3F)cccn2c1SC(F)(F)F [Example 462] | – | – | < 10 nM | – | – | < 750 nM | > 90% | < 750 nM | ≥ 10000 nM | – | < 750 nM
CNC(=O)c1ccc(OC2COC2)c(NCC#Cc2cc3c(N[C@@H]4CCNC[C@@H]4F)cccn3c2SC(F)(F)F)n1 [Example 463] | – | – | < 10 nM | – | – | < 750 nM | > 90% | < 750 nM | ≥ 10000 nM | – | < 750 nM
COc1cc(C(N)=O)ccc1NCC#Cc1cc2c(N[C@@H]3CCN(C)C[C@@H]3F)cccn2c1SC(F)(F)F [Example 464] | – | – | < 10 nM | – | – | < 750 nM | > 90% | < 750 nM | ≥ 10000 nM | – | < 750 nM
CNC(=O)c1ccc(NCC#Cc2cc3c(N[C@@H]4CCN(C)C[C@@H]4F)cccn3c2SC(F)(F)F)c(Cl)c1 [Example 466, 3-chloro-4-{[3-(8-{[(3S,4R)-3-fluoro-1-methylpiperidin-4-yl]amino}-3-[(trifluoromethyl)sulfanyl]indolizin-2-yl)prop-2-yn-1-yl]amino}-N-methylbenzamide] | – | – | < 10 nM | – | – | < 750 nM | 80 to 90% | < 750 nM | ≥ 10000 nM | – | < 750 nM
CNC(=O)c1ccc(NCC#Cc2cc3c(N[C@@H]4CCN(C)C[C@@H]4F)cccn3c2SC(F)(F)F)c(O)c1 [Example 469, 4-{[3-(8-{[(3S,4R)-3-fluoro-1-methylpiperidin-4-yl]amino}-3-[(trifluoromethyl)sulfanyl]indolizin-2-yl)prop-2-yn-1-yl]amino}-3-hydroxy-N-methylbenzamide] | – | – | < 10 nM | – | – | < 750 nM | > 90% | < 750 nM | 5000 to 8000 nM | – | < 750 nM
[2H]C([2H])([2H])Oc1ccc(C(=O)NC)cc1NCC#Cc1cc2c(N[C@@H]3CCN(C)C[C@@H]3F)nccn2c1SC(F)(F)F [Example 470, 3-((3-(1-(((3S,4R)-3-fluoro-1-methylpiperidin-4-yl)amino)-6-((trifluoromethyl)thio)pyrrolo[1,2-a]pyrazin-7-yl)prop-2-yn-1-yl)amino)-4-(methoxy-d3)—N-methylbenzamide] | – | – | < 10 nM | – | – | < 750 nM | > 90% | < 750 nM | ≥ 10000 nM | – | < 750 nM
COc1ccc(C(=O)N[C@H]2C[C@@H](O)C2)cc1NCC#Cc1cc2c(N[C@@H]3CCN(C)C[C@@H]3F)cccn2c1SC(F)(F)F [Example 471] | – | – | < 10 nM | – | – | < 750 nM | > 90% | < 750 nM | ≥ 10000 nM | – | < 750 nM
COc1ccc(C(=O)N[C@H](C)[C@@H](C)O)cc1NCC#Cc1cc2c(N[C@@H]3CCN(C)C[C@@H]3F)cccn2c1SC(F)(F)F [Example 473] | – | – | < 10 nM | – | – | < 750 nM | > 90% | < 750 nM | ≥ 10000 nM | – | < 750 nM
CNC(=O)c1ccc(OC)c(NCC#Cc2cc3c(N[C@@H]4CNC[C@@H]4F)cccn3c2SC(F)(F)F)c1 [Example 478] | – | – | < 10 nM | – | – | < 750 nM | > 90% | < 750 nM | ≥ 10000 nM | – | < 750 nM

Second part, led by results:

AC50 (p53 Y220C; [2]) | Emax (p53 Y220C; [2]) | Kd [1] | IC50 (H1299 p53 Y220C; CellTiter-Glo) | IC50 (H1299 p53 R273H; CellTiter-Glo) | AC50 (p53 Y220C; [3]) | Emax (p53 Y220C; [4]) | IC50 (H1299 p53 Y220C) | IC50 (H1299 p53 R273H) | SMILES | IC50 (NUGC3 p53 Y220C; CellTiter-Glo) | IC50 (NUGC3 p53 Y220C)
< 750 nM | > 90% | < 10 nM | < 750 nM | ≥ 10000 nM | – | – | – | – | CN1CC[C@@H](Nc2cccn3c(SC(F)(F)F)c(C#CCNc4ccc(C(=O)NC[C@@H]5CCO5)cc4)cc23)[C@@H](F)C1 [Example 453] | < 750 nM | –
– | – | < 10 nM | – | – | < 750 nM | > 90% | < 750 nM | ≥ 10000 nM | COc1ccc(C(=O)N[C@@H](C)[C@H](C)O)cc1NCC#Cc1cc2c(N[C@@H]3CCN(C)C[C@@H]3F)cccn2c1SC(F)(F)F [Example 456] | – | < 750 nM
– | – | < 10 nM | – | – | < 750 nM | > 90% | < 750 nM | 8000 to 10000 nM | CN1CC[C@@H](Nc2cccn3c(SC(F)(F)F)c(C#CCNc4ccc(C(=O)NCC(C)(C)O)cc4)cc23)[C@@H](F)C1 [Example 457] | – | < 750 nM
– | – | < 10 nM | – | – | < 750 nM | > 90% | < 750 nM | ≥ 10000 nM | CN1CC[C@@H](Nc2cccn3c(SC(F)(F)F)c(C#CCNc4ccc(C(=O)N[C@H]5C[C@@H](O)C5)cc4)cc23)[C@@H](F)C1 [Example 465] | – | < 750 nM
– | – | < 10 nM | – | – | < 750 nM | > 90% | < 750 nM | 8000 to 10000 nM | COc1ccc(C(=O)N[C@H](C)[C@H](C)O)cc1NCC#Cc1cc2c(N[C@@H]3CCN(C)C[C@@H]3F)cccn2c1SC(F)(F)F [Example 468] | – | < 750 nM
– | – | < 10 nM | – | – | < 750 nM | > 90% | < 750 nM | ≥ 10000 nM | CNC(=O)c1ccc(O)c(NCC#Cc2cc3c(N[C@@H]4CCN(C)C[C@@H]4F)cccn3c2SC(F)(F)F)c1 [Example 472] | – | < 750 nM
– | – | < 10 nM | – | – | < 750 nM | > 90% | < 750 nM | 8000 to 10000 nM | COc1cc(C(=O)NC[C@H](C)O)ccc1NCC#Cc1cc2c(N[C@@H]3CCN(C)C[C@@H]3F)cccn2c1SC(F)(F)F [Example 475, 4-{[3-(8-{[(3S,4R)-3-fluoro-1-methylpiperidin-4-yl]amino}-3-[(trifluoromethyl)sulfanyl]indolizin-2-yl)prop-2-yn-1-yl]amino}-N-[(2S)-2-hydroxypropyl]-3-methoxybenzamide] | – | < 750 nM
– | – | < 10 nM | – | – | < 750 nM | 80 to 90% | < 750 nM | ≥ 10000 nM | CNC(=O)c1ccc(O)c(NCC#Cc2cc3c(N[C@@H]4CCNC[C@@H]4F)cccn3c2SC(F)(F)F)c1 [Example 477, 3-{[3-(8-{[(3S,4R)-3-fluoropiperidin-4-yl]amino}-3-[(trifluoromethyl)sulfanyl]indolizin-2-yl)prop-2-yn-1-yl]amino}-4-hydroxy-N-methylbenzamide] | – | < 750 nM
– | – | < 10 nM | – | – | < 750 nM | > 90% | < 750 nM | ≥ 10000 nM | CNC(=O)c1cc(NCC#Cc2cc3c(N[C@@H]4CCN(C)C[C@@H]4F)cccn3c2SC(F)(F)F)c2cncn2c1 [Example 479] | – | < 750 nM

— patent US20260374766A1, “METHODS FOR TREATING CANCER” (Antares Therapeutics, Inc., priority 2022, published 2026)
